These results are taken from patent publication EP4610267A1, “CYCLIC DINUCLEOTIDES AND CONJUGATES THEREOF WITH ANTIBODIES” (priority 2024, dated 2025).

For one assay, the target named is T1, STING WT (Homo sapiens, UniProt Q86WV6, H232R).
T1 construct: expressed in transfected cells
Description: 293T STING digitonin reporter assay (WT haplotype). The conditions noted are these: digitonin permeabilised 293T reporter cells. Type of assay: cell-based. The method, then: Digitonin Assay with 293T Reporter Cells. The generation of 293T reporter cells stably expressing different STING protein haplotypes (WT, HAQ, REF, AQ, or Q) was described previously (Novotna et al, J. Med. Chem. 2019,62, 10676). The cells were seeded at a density of 250 000 cells per cm^2 into 96 well white poly(D-lysine) coated plates in 100 µL of DMEM with high glucose supplemented with 10% heat inactivated FBS. Next day, the medium was removed, and compounds were added in 3-fold serial dilutions in a digitonin buffer containing 50 mM HEPES (pH 7.0), 100 mM KCl, 3 mM MgClz, 0.1 mM DTT, 85 mM sucrose, 0.2% (w/w) BSA, 1 mM ATP, 0.1 mM GTP, and 10 µg/mL digitonin A. After 30 min incubation at 37 °C with 5% CO2, the digitonin buffer was removed, cells were washed once with 100 µL of the cultivation medium, and 100 µL of fresh medium was added to each well. The plates with cells were further incubated for 5 h at 37 °C with 5% CO2. Thereafter, 50 µL of the medium was removed, and 30 µL of Bright-Glo Luciferase Assay System reagent was added to each well. […] Nonlinear regression curve fit with standard slope was used for EC50 value calculations. The EC50 value represents CDN concentration that gives half-maximal response of firefly luciferase in the 293T reporter assay.
(In general: Reporter assays use an easily measured gene product as a stand-in for the process of interest.)

The subject of assay [1] is Her2 expressing HCC1954 breast tumor xenograft. Description: Her2 expressing HCC1954 breast tumor xenograft model. Type of assay: in vivo, SCID-beige mice. The following applies: single i.v. dose 1.7 mg/kg (40x higher payload dose than in 2.5 mg/kg mAb3-3.3) (Fig. 8). On the procedure: For in vivo testing in the Her2 expressing HCC1954 breast cancer xenograft mouse model, female SCID-beige mice at 8 to 12 weeks of age (purchased from Charles River Lab) were used for implantation. HCC1954 cells (obtained from ATCC) were cultured in RPMI medium supplemented with 10% fetal bovine serum at 37°C in a humidified incubator with 5% CO2 On the day of implantation, 1 × 10^7 HCC1954 cells were re-suspended in 100µL RPMI1640 serum free media containing 50% Matrigel and implanted subcutaneously in the right flank. After implant, tumors were measured by caliper and mice were weighed two times per week once tumors were palpable. Tumor volumes were calculated from caliper measurements using formula (L × W^2)/2. Animals were pair matched when tumor reached volume 100 - 150 mm^3 (designated as day 1). Two i.v. injections were performed on day 1 and 8 (D1 and D8) of 5mg/kg of anti-Her2 mAbl-3.4 (DAR 3.9), 5mg/kg mAbl-3.11 (DAR 3.9), 5mg/kg isotype mAb-3.4 (DAR 3.9), 5mg/kg anti-Her2 mAb1 or PBS vehicle. […]
Compound 3.13 was conjugated to engineered light chain C110 and heavy chain C375 of anti-Her2 mAb (mAb3) as described above. […] After implant, tumors were measured by caliper and mice were weighed two times per week once tumors were palpable. Tumors were measured in two dimensions and tumor volumes were calculated from caliper measurements using formula (L × W^2)/2. […]

T1 sequence (Q86WV6 whole entry H232R): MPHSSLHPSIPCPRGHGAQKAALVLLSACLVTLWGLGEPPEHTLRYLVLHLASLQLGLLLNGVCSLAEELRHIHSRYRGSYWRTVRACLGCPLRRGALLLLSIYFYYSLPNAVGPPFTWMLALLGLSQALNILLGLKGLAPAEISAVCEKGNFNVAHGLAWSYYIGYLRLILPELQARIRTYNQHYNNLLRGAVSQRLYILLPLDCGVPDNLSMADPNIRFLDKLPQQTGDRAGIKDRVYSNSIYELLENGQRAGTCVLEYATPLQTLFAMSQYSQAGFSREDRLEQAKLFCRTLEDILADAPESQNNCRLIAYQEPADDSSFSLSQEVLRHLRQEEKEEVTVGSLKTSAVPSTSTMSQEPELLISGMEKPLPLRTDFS

What is called EC50 is the concentration giving half of the maximal effect. Lower therefore signals higher potency in that assay. Molecule `Nc1ncnc2c1ncn2[C@@H]1O[C@@H]2OCP(=O)(S)O[C@@H]3[C@H](F)[C@@H](COP(=O)(S)OC[C@H]2[C@H]1F)O[C@H]3n1cnc2c(=O)[nH]cnc21` (single isomer, unassigned) [Compound 2.2] came in with an EC50 at STING WT of 0.02 µM. The “effect on HCC1954 tumors” value in assay [1] was “only triggered tumor growth inhibition”.
